According to ChEMBL document CHEMBL4190285, “Borapetoside E, a Clerodane Diterpenoid Extracted from Tinospora crispa, Improves Hyperglycemia and Hyperlipidemia in High-Fat-Diet-Induced Type 2 Diabetes Mice” (J Nat Prod, 2017):
Activity calls are given as the source filed them.

What was measured:
[1] = test system: Mus musculus; assay: Down regulation of HMGCR mRNA expression in HFD-induced obese C57BL/6J mouse liver at 20 to 40 mg/kg, ip administered twice daily for 2.5 days measured at 2 hrs post last dose by RT-PCR analysis; type: functional, organism-based
[2] = test system: Mus musculus; assay: Antihyperlipidemic activity in high fat diet-induced obese C57BL/6J mouse assessed as reduction in triglyceride level in epididymis adipose tissue at 20 to 40 mg/kg, ip administered twice daily for 2.5 days measured at 2 hrs post last dose; type: functional, organism-based
[3] = test system: Mus musculus; assay: Improvement in serum AST level in HFFD-induced obese C57BL/6J mouse assessed as serum AST level at 40 mg/kg, ip administered twice daily for 2.5 days followed by once daily dosing up to 16 days measured at 2 hrs post last dose (reference value: 15.14 +/- 3.84 IU/L); type: functional
[4] = test system: Mus musculus; assay: Down regulation of ACL1 mRNA expression in HFD-induced obese C57BL/6J mouse adipose tissue at 20 to 40 mg/kg, ip administered twice daily for 2.5 days measured at 2 hrs post last dose by RT-PCR analysis; type: functional, organism-based
[5] = test system: Mus musculus; assay: Antihyperglycemic activity in high fat diet-induced obese C57BL/6J mouse assessed as reduction in blood glucose level at 20 to 40 mg/kg, ip administered twice daily for 2.5 days measured after 2 hrs post last dose; type: functional, organism-based
[6] = test system: Mus musculus; assay: Antihyperlipidemic activity in high fat diet-induced obese C57BL/6J mouse assessed as reduction in free fatty acid level in epididymis adipose tissue at 20 to 40 mg/kg, ip administered twice daily for 2.5 days measured at 2 hrs post last dose; type: functional, organism-based
[7] = test system: Mus musculus; assay: Down regulation of SREBP2 mRNA expression in HFD-induced obese C57BL/6J mouse adipose tissue at 20 to 40 mg/kg, ip administered twice daily for 2.5 days measured at 2 hrs post last dose by RT-PCR analysis; type: functional, organism-based
[8] = test system: Mus musculus; assay: Improvement in insulin resistance in high fat diet-induced obese C57BL/6J mouse assessed as reduction in blood glucose AUC at 40 mg/kg, ip administered as single dose pretreated for 2 hrs followed by insulin challenge measured up to 2 hrs by ITT; type: functional, organism-based
[9] = test system: Mus musculus; assay: Antihyperglycemic activity in high fat diet-induced obese C57BL/6J mouse assessed as reduction in blood glucose level at 40 mg/kg, ip administered as single dose measured after 36 hrs; type: functional, organism-based
[10] = test system: Mus musculus; assay: Antiobesity activity in HFFD-induced obese C57BL/6J mouse assessed as reduction in body weight at 40 mg/kg, ip administered twice daily for 2.5 days followed by once daily dosing up to 16 days relative to control; type: functional; design: scale not given: the % may be the effect or the level left
[11] = test system: Mus musculus; assay: Improvement in insulin resistance in high fat diet-induced obese C57BL/6J mouse assessed as increase in GLUT2 expression in skeletal muscle at 40 mg/kg, ip administered twice daily for 2.5 days measured at 2 hrs post last dose by Western blot analysis; type: functional, organism-based
[12] = test system: Mus musculus; assay: Toxicity in HFFD-induced obese C57BL/6J mouse assessed as serum creatinine level at 40 mg/kg, ip administered twice daily for 2.5 days followed by once daily dosing up to 16 days measured at 2 hrs post last dose (reference value: 100.67 +/- 17.2 umol/L); type: organism-based; conditions: in vivo
[13] = test system: Mus musculus; assay: Down regulation of ABCG8 mRNA expression in HFD-induced obese C57BL/6J mouse liver at 20 to 40 mg/kg, ip administered twice daily for 2.5 days measured at 2 hrs post last dose by RT-PCR analysis; type: functional, organism-based
[14] = test system: Mus musculus; assay: Increase in carbon dioxide production in HFD-induced obese C57BL/6J mouse at 40 mg/kg, ip administered twice daily for 2.5 days incubated for 12.6 hrs under dark condition followed by redosing on day 3 for 2 times; type: functional, organism-based
[15] = test system: Mus musculus; assay: Antihyperlipidemic activity in high fat diet-induced obese C57BL/6J mouse assessed as reduction in liver cholesterol levels at 20 to 40 mg/kg, ip administered twice daily for 2.5 days measured at 2 hrs post last dose; type: functional, organism-based
[16] = test system: Mus musculus; assay: Antiobesity activity in HFFD-induced obese C57BL/6J mouse assessed as reduction in hepatic steatosis at 40 mg/kg, ip administered twice daily for 2.5 days followed by once daily dosing up to 16 days measured at 2 hrs post last dose by Oil red O staining based histological analysis; type: functional, organism-based
[17] = test system: Mus musculus; assay: Down regulation of SREBP1 mRNA expression in HFD-induced obese C57BL/6J mouse adipose tissue at 20 to 40 mg/kg, ip administered twice daily for 2.5 days measured at 2 hrs post last dose by RT-PCR analysis; type: functional, organism-based
[18] = test system: Mus musculus; assay: Antihyperlipidemic activity in high fat diet-induced obese C57BL/6J mouse assessed as reduction in cholesterol level in epididymis adipose tissue at 20 to 40 mg/kg, ip administered twice daily for 2.5 days measured at 2 hrs post last dose; type: functional, organism-based
[19] = test system: Mus musculus; assay: Increase in phosphorylated AMPKalpha level in HFFD-induced obese C57BL/6J mouse liver at 20 to 40 mg/kg, ip administered twice daily for 2.5 days measured at 2 hrs post last dose by Western blot analysis; type: functional, organism-based
[20] = test system: Mus musculus; assay: Improvement in insulin resistance in high fat diet-induced obese C57BL/6J mouse assessed as increase in insulin sensitivity index at 40 mg/kg, ip pretreated twice daily for 2.5 days followed by insulin challenge at 2 hrs post last dose measured up to 2 hrs by ITT; type: functional, organism-based
[21] = test system: Mus musculus; assay: Antihyperlipidemic activity in high fat diet-induced obese C57BL/6J mouse assessed as reduction in liver triglyceride levels at 20 to 40 mg/kg, ip administered twice daily for 2.5 days measured at 2 hrs post last dose; type: functional, organism-based
[22] = test system: Mus musculus; assay: Down regulation of n-SREBP1 expression in HFD-induced obese C57BL/6J mouse liver at 20 to 40 mg/kg, ip administered twice daily for 2.5 days measured at 2 hrs post last dose by Western blot analysis; type: functional, organism-based
[23] = test system: Mus musculus; assay: Improvement in insulin resistance in high fat diet-induced obese C57BL/6J mouse assessed as increase in phosphorylated AKT ser473 level in liver at 40 mg/kg, ip administered twice daily for 2.5 days measured at 2 hrs post last dose by Western blot analysis; type: functional, organism-based
[24] = test system: Mus musculus; assay: Antihyperlipidemic activity in high fat diet-induced obese C57BL/6J mouse assessed as serum free fatty acid levels at 40 mg/kg, ip administered twice daily for 2.5 days measured at 2 hrs post last dose (reference value: 1.41 +/- 0.3 mmol/L); type: functional
[25] = test system: Mus musculus; assay: Toxicity in HFFD-induced obese C57BL/6J mouse assessed as serum creatinine kinase level at 40 mg/kg, ip administered twice daily for 2.5 days followed by once daily dosing up to 16 days measured at 2 hrs post last dose (reference value: 551.93 +/- 126.48 U/L); type: organism-based; conditions: in vivo
[26] = test system: Mus musculus; assay: Increase in oxygen consumption in HFD-induced obese C57BL/6J mouse at 40 mg/kg, ip administered twice daily for 2.5 days incubated for 12.6 hrs under dark condition followed by redosing on day 3 for 2 times; type: functional, organism-based
[27] = test system: Mus musculus; assay: Antihyperlipidemic activity in high fat diet-induced obese C57BL/6J mouse assessed as serum LDL-C levels at 40 mg/kg, ip administered twice daily for 2.5 days measured at 2 hrs post last dose (reference value: 2.54 +/- 0.87 mmol/L); type: functional
[28] = test system: Mus musculus; assay: Down regulation of HMGCS mRNA expression in HFD-induced obese C57BL/6J mouse liver at 20 to 40 mg/kg, ip administered twice daily for 2.5 days measured at 2 hrs post last dose by RT-PCR analysis; type: functional, organism-based

Measured: Activity

COC(=O)C1=CCC[C@H]2[C@](C)(C[C@@H](O[C@@H]3O[C@H](CO)[C@@H](O)[C@H](O)[C@H]3O)c3ccoc3)[C@H]3C[C@H](OC3=O)[C@@]12C
8.7%: [10]
inactive: [19]
active: [1] | [2] | [4] | [5] | [6] | [7] | [8] | [9] | [11] | [13] | [14] | [15] | [16] | [17] | [18] | [20] | [21] | [22] | [23] | [26] | [28]
0.82 mmol/L: [24]
520.4 U/L: [25]
1.65 mmol/L: [27]
8.61 IU/L: [3]
86.37 µmol/L: [12]
